Results on two substances are retold here after US12060588B2, “Methods of editing DNA methylation” (Whitehead Institute for Biomedical Research, priority 2016, dated 2024).

This experiment concerns Snrpn promoter (IG-DMR GFP/Pat reporter). Description: Ex vivo activation of the silenced IG-DMR-Snrpn-GFP reporter in mouse tail fibroblasts. In kind it is cell-based. The text has this:
FIGS. 7A-7H depict targeted ex vivo and in vivo DNA methylation editing by dCas9-Tet1 to activate a silenced GFP reporter. FIG. 7A provides a schematic diagram illustrating the experimental procedure for the ex vivo activation of a silenced GFP reporter in mouse fibroblast cells. Mouse tail fibroblast cells were derived from a genetically modified mouse line carrying a paternal IG-DMR-Snrpn-GFP allele (IG-DMRGFP/Pat) in the Dlk1-Dio3 locus. The IG-DMR-Snrpn promoter on the paternal allele is hypermethylated so that the GFP reporter is constitutively silenced. The cultured fibroblast cells were infected with lentiviral vectors expressing dCas9-Tet1 and gRNAs to demethylate the Snrpn promoter and activate the GFP reporter. Cells are subject to imaging and FACS analysis. […] Stained in red for Cherry, green for GFP and DAPI for nuclei. Scale bar: 100 um. Note that in order to turn on the Snrpn-GFP methylation reporter, both dCas9-Tet1 and target gRNA lentiviral vectors have to be transduced into the same cells. […] Brains were sliced and analyzed by immunohistochemical approaches. […] FIGS. 7G-7H provide quantification of the percentage of IG-DMR^GFP/Pat cells with GFP activation in Cherry (gRNAs) positive cells in the in vivo lentiviral delivery experiment in the brain (FIG. 7G) and in the skin epidemis (FIG. 7H). […]

Consider “dC-dT: dCas9 fused to an inactive mutant form of Tet1 (H1672Y, D1674A), SEQ ID NO: 160”, for which the “GFP reporter activation in Cherry (gRNA) positive fibroblasts” value (with Snrpn target gRNAs, lentiviral transduction) is “cannot turn on GFP reporter expression”. For the substance “dCas9-Tet1: catalytically inactive Cas9 (dCas9) fused through NLS to the Tet1 catalytic domain, SEQ ID NO: 159; lentivirally expressed with gRNAs”, the “GFP reporter activation in Cherry (gRNA) positive fibroblasts” value (with a sc gRNA) is listed as “cannot turn on GFP reporter expression”.
